# Assay results published in patent publication EP0316212B1 (priority 1987, dated 1989).
# Experiments:
# [1] = molecular target: reverse transcriptase du HIV1 (Human immunodeficiency virus type 1 group M subtype B, UniProt P04585); assay: Reverse transcriptase activity of HIV1 incubated with NP derivatives, tested immediately; format: biochemical; conditions: témoin virus 11924
# Procedure: (§1) La technique de culture et de titrage de la reverse-transcriptase du HIV est rappelée ci-après : Des lymphocytes humains, préalablement activés par la PHA (phytohémagglutinine) sont incubés dans un milieu nutritif (RPMI 1640 + sérum de veau foetal + antibiotiques + β-mercaptoéthanol 10⁻⁵M + 2»g/ml polybrene + sérum anti-interféron 1/2000 + IL2 10%). Après centrifugation, le culot cellulaire est mis en présence du HIV1 (10.000 cpm/10⁶ cellules) pendant 1 heure à 37°. Après lavage et centrifugation, les cellules sont resuspendues dans du milieu nutritif. Les surnageants de culture cellulaire sont suivis pendant plusieurs jours pour leur activité reverse transcriptase. Ils sont centrifugés 7 minutes à 95000 tours et le culot est lysé par du Triton® 0,1% (produit Touzart et Matignon). Un mélange réactionnel est ajouté (Tris, DTT (dithiothreitol), MgCl₂, KCl, PolyA, Oligo dT, ³HTTP, H₂O) et après 1 heure d'incubation à 37°C, la réaction est arrêtée avec du pyrophosphate de sodium et de l'acide nucléique de levure est ajouté pour aider la précipitation. De l'acide trichloracétique (TCA) est ajouté et la solution est laissée 15 minutes à 4°C. Après filtration sous vide avec des filtres millipores 0.45 »m et plusieurs lavages avec du TCA (0.5%), on procède au rinçage à l'éthanol, au sèchage en étuve 37° et enfin au comptage.
# Le HIV1 est incubé 1 heure à 37° en présence d'AcN (D23, 621, N5-12), d'anticorps anti-NP (TNP11) ou en présence des dérivés NP (DNP-glycine et DNP-lysine). L'activité reverse transcriptase du HIV1 est testée immédiatement (cas des dérivés DNP-glycine et DNP-lysine). Alternativement, des lymphocytes humains sont infectés par le HIV1 préincubé avec les produits à tester, et la culture cellulaire est observée pendant 3 semaines par titrage de la reverse transcriptase. Durant cette période les cultures des lymphocytes humains ne contiennent pas d'anticorps ni d'antigène.
# HIV1 = HIV1 infection of human lymphocytes preincubated with antibodies or NP derivatives, reverse transcriptase in supernatants; format: cell-based; conditions: for activité reverse transcriptase (surnageants de culture): dérivés NP, concentration not given
# Procedure: as §1
# Les lymphocytes humains, préalablement activés par la PHA, sont incubés en présence des AcN, des anticorps anti-NP et des dérivés NP (DNP-glycine, DNP-lysine) pendant une nuit à 37°C. Le lendemain, le culot cellulaire est mis en présence du HIV1 pendant 1 heure à 37°C au bain-marie et les cellules sont resuspendues dans du milieu nutritif en présence des produits à tester. Les surnageants de culture sont testés pour l'activité reverse transcriptase pendant 3 semaines.
smiles,measurement,setting,value
"O=C(O)CNc1ccc([N+](=O)[O-])cc1[N+](=O)[O-] [DNP-glycine, DNP-Glycine]",Activité reverse transcriptase,[1]; 10^-3M,5444
same,Activité reverse transcriptase,[1]; 10^-6M,3424
same,Activité reverse transcriptase,[1]; 10^-7M,4090
same,Activité reverse transcriptase,[1]; 10^-9M,3638
same,activité reverse transcriptase (surnageants de culture),"HIV1; 3 jours après l'infection, témoin virus 562",1064
same,activité reverse transcriptase (surnageants de culture),"HIV1; 6 jours après l'infection, témoin virus 1274",890
same,activité reverse transcriptase (surnageants de culture),"HIV1; 10 jours après l'infection, témoin virus 94474",1234
same,activité reverse transcriptase (surnageants de culture),"HIV1; 13 jours après l'infection, témoin virus 63944",1572
same,activité reverse transcriptase (surnageants de culture),"HIV1; 18 jours après l'infection, témoin virus 73368",1276
same,activité reverse transcriptase (surnageants de culture),"HIV1; 20 jours après l'infection, témoin virus 26840",1270
same,activité reverse transcriptase / infectivité virale par rapport au témoin virus (result in words),HIV1; lymphocytes incubés avec les produits,peuvent conduire à une inhibition totale de l'infectivité virale
